± gives the uncertainty stated by the source.
Experiment: xn = mol fraction of the nth substance listed
Details: for viscosity: 100 kPa; for electrical conductivity: 101 kPa

CCCCCCCCCCCCOS(=O)(=O)[O-].[Na+] + O
Details | electrical conductivity, 298.15 K [S/m] | viscosity, 298.15 K [mPa·s] | viscosity, 303.15 K [mPa·s] | viscosity, 308.15 K [mPa·s] | viscosity, 313.15 K [mPa·s] | viscosity, 318.15 K [mPa·s]
x1 = 1.802e-05 | – | – | 0.764 ± 0.026 | 0.69 ± 0.026 | 0.599 ± 0.027 | 0.567 ± 0.026
x1 = 3.604e-05 | – | – | 0.766 ± 0.026 | 0.691 ± 0.026 | 0.6 ± 0.026 | 0.568 ± 0.026
x1 = 5.406e-05 | – | – | 0.767 ± 0.026 | 0.691 ± 0.026 | 0.601 ± 0.026 | 0.57 ± 0.026
x1 = 6.168e-05 | 0.02352 ± 1e-05 | – | – | – | – | –
x1 = 6.588e-05 | 0.02512 ± 1e-05 | – | – | – | – | –
x1 = 7.207e-05 | – | – | 0.768 ± 0.026 | 0.692 ± 0.026 | 0.601 ± 0.026 | 0.57 ± 0.026
x1 = 7.696e-05 | 0.02928 ± 1e-05 | – | – | – | – | –
x1 = 8.42e-05 | 0.03184 ± 2e-05 | – | – | – | – | –
x1 = 9.009e-05 | – | – | 0.769 ± 0.026 | 0.694 ± 0.026 | 0.602 ± 0.026 | 0.571 ± 0.026
x1 = 9.222e-05 | 0.03505 ± 2e-05 | – | – | – | – | –
x1 = 9.755e-05 | 0.03686 ± 2e-05 | – | – | – | – | –
x1 = 0.0001029 | 0.03889 ± 2e-05 | – | – | – | – | –
x1 = 0.0001081 | – | – | 0.77 ± 0.026 | 0.695 ± 0.026 | 0.603 ± 0.026 | 0.571 ± 0.026
x1 = 0.0001261 | – | – | 0.772 ± 0.026 | 0.696 ± 0.026 | 0.604 ± 0.026 | 0.572 ± 0.026
x1 = 0.0001441 | – | – | 0.773 ± 0.026 | 0.698 ± 0.026 | 0.605 ± 0.026 | 0.573 ± 0.026
x1 = 0.0001622 | – | – | 0.774 ± 0.026 | 0.7 ± 0.026 | 0.605 ± 0.026 | 0.574 ± 0.026
x1 = 0.0001802 | – | – | 0.775 ± 0.026 | 0.701 ± 0.026 | 0.606 ± 0.026 | 0.575 ± 0.026
x1 = 0.0001982 | – | – | 0.776 ± 0.026 | 0.702 ± 0.026 | 0.607 ± 0.026 | 0.576 ± 0.026
x1 = 0.0002162 | – | – | 0.776 ± 0.026 | 0.702 ± 0.026 | 0.608 ± 0.026 | 0.576 ± 0.026
x1 = 0.0002342 | – | – | 0.777 ± 0.026 | 0.704 ± 0.026 | 0.609 ± 0.026 | 0.577 ± 0.026
x1 = 0.0002522 | – | – | 0.778 ± 0.026 | 0.704 ± 0.026 | 0.609 ± 0.026 | 0.577 ± 0.026
x1 = 0.0002702 | – | 0.867 ± 0.027 | 0.779 ± 0.027 | 0.705 ± 0.026 | 0.61 ± 0.028 | 0.578 ± 0.026

298.15 K, frequency 0.001 MHz
Details | electrical conductivity [S/m]
x1 = 1.029e-05 | 0.00434 ± 0.00043
x1 = 2.57e-05 | 0.0104 ± 0.001
x1 = 3.699e-05 | 0.0155 ± 0.0016
x1 = 5.034e-05 | 0.0213 ± 0.0021
x1 = 6.37e-05 | 0.0264 ± 0.0026
x1 = 7.295e-05 | 0.0301 ± 0.003
x1 = 8.321e-05 | 0.0349 ± 0.0035
x1 = 9.348e-05 | 0.0392 ± 0.0039
x1 = 0.0001038 | 0.0422 ± 0.0042
x1 = 0.000113 | 0.0461 ± 0.0046
x1 = 0.0001212 | 0.051 ± 0.0051
x1 = 0.0001315 | 0.054 ± 0.0054
x1 = 0.0001418 | 0.0567 ± 0.0057
x1 = 0.00015 | 0.0607 ± 0.0061
x1 = 0.0001582 | 0.0631 ± 0.0063
x1 = 0.0001665 | 0.0649 ± 0.0065
x1 = 0.000183 | 0.0673 ± 0.0067
x1 = 0.0001944 | 0.0683 ± 0.0068
x1 = 0.0002036 | 0.0701 ± 0.007
x1 = 0.000214 | 0.0713 ± 0.0071
x1 = 0.0002222 | 0.0737 ± 0.0074
x1 = 0.0002315 | 0.075 ± 0.0075
x1 = 0.0002408 | 0.0771 ± 0.0077
x1 = 0.0002521 | 0.0792 ± 0.0079
x1 = 0.0002625 | 0.0801 ± 0.008
x1 = 0.0002738 | 0.0823 ± 0.0082
x1 = 0.0002862 | 0.0841 ± 0.0084

Source: the CheMixHub ionic liquid set
